Reference: US20190119284A1, “ErbB Inhibitors and Uses Thereof” (The Regents of the University of California, priority 2016, published 2019)
Where two headings read alike, the source gives them in different places.

Tests used:
Type in all cases: cell-based
HER2+/2VE Ba/F3 line = assay: Ba/F3 proliferation assay, HER2+/2VE; details: Tables 7 and 8
Description: (§1) Proliferation Assays. For adherent cell lines, cells were plated onto opaque white 96 well plates (Greiner cat #655083) and allowed to adhere overnight. The following day media was changed to fresh media that contained either DMSO or the indicated concentration of drug plus NRG (50 ng/mL final concentration) as indicated. Plates were incubated at 37° C. for 72 h and proliferation was read out using Cell Titer Glo (Promega) according to the manufacturer's protocol. For Ba/F3 cell proliferation, cells, drug dilution, and any necessary growth factors (10 ng/mL IL-3 or 6.25 ng/mL NRG) were combined in a well of a 96 well plate. Plates were incubated at 37° C. for 48 h and proliferation was read out using Cell Titer Glo according to the manufacturer's protocol. For all normalized assays, proliferation was normalized to the DMSO control condition. All graphs were plotted in GraphPad Prism 6 and fit with a non-linear regression of the log(inhibitor) vs response with a variable slope where shown. All graphs are averages (+/−standard deviation) of biological triplicates each performed in technical triplicate unless otherwise noted. If only one biological replicate was performed standard deviations were derived from the technical replicates.

[1] = biological target: 2YF/3wt + NRG Ba/F3 cells (HER2YF/HER3wt) (Homo sapiens, UniProt P04626, Y1005F/Y1023F/Y1112F/Y1127F/Y1139F/Y1196F/Y1221F/Y1222F/Y1248F, cells depend on it); assay: Ba/F3 proliferation assay, 2YF/3wt + NRG; details: Tables 7 and 8; read-out: Ba/F3 line IC50, HER2YF/HER3 + NRG
Text: Ba/F3 cells are normally dependent on IL-3 signaling for their proliferation and survival, but can be made dependent on introduced oncogenic signals. We sequentially selected transduced Ba/F3 cells for populations stably expressing HER3 and then HER2. To ensure that all of the proliferative signal could be attributed to HER2/HER3 heterodimers, rather than HER2 homodimers, the 9 C-terminal tyrosines in HER2 were mutated to phenylalanine (HER2YF). We then withdrew IL-3 and supplemented the media with NRG to select for NRG dependent HER2YF/HER3wt cells (2YF/3wt).
For the 2YF/3wt cells, the parental cells were first transduced with HER3 according to the protocol above and were then spun down at 500×g for 5 min and re-suspended in media supplemented with 10 ng/mL IL-3 and 3 μg/mL puromycin (Invitrogen). Cells were maintained in these conditions for seven days, passaging as required. After seven days the cells were spun down, washed with fresh media, and then used for a subsequent round of transduction according to the protocol above with HER2YF virus. […] The cells were maintained in these conditions for seven days, passaging as required. After seven days the cells were spun down, washed with fresh media, and then suspended in media supplemented with 10 ng/mL of NRG. Cells were maintained in these conditions for seven days to select for a NRG dependent population of 2YF/3wt Ba/F3 cells that were then maintained as described above. The same protocol was used for the 2YF-L755S/3wt, 2YF-YVMA/3wt, and 2YF-VC/3wt cell lines using the indicated constructs.
Proliferation Assays. […] The following day media was changed to fresh media that contained either DMSO or the indicated concentration of drug plus NRG (50 ng/mL final concentration) as indicated. […] For all normalized assays, proliferation was normalized to the DMSO control condition. All graphs were plotted in GraphPad Prism 6 and fit with a non-linear regression of the log(inhibitor) vs response with a variable slope where shown. All graphs are averages (+/−standard deviation) of biological triplicates each performed in technical triplicate unless otherwise noted. If only one biological replicate was performed standard deviations were derived from the technical replicates.

[2] = system: parental Ba/F3 cells + IL-3; assay: Ba/F3 proliferation assay, Parental + IL-3; details: Tables 7 and 8, read-out: Ba/F3 line IC50, Parental + IL-3
Description: (§2) To validate the screen and test the effectiveness of counter-screening with either the same 2YF/3wt Ba/F3 cell line or the parental Ba/F3's in the presence of IL-3 to remove cytotoxic primary hits, we first tested a panel of kinase inhibitors with established mechanisms of action.
as §1

Axl+ Ba/F3 cells = biological target: T1, Axl+ Ba/F3 cells (Homo sapiens, UniProt P30530); assay: Ba/F3 proliferation assay, Axl+; details: Tables 7 and 8; read-out: Ba/F3 line IC50, Axl+
T1 sequence (P30530 1-894): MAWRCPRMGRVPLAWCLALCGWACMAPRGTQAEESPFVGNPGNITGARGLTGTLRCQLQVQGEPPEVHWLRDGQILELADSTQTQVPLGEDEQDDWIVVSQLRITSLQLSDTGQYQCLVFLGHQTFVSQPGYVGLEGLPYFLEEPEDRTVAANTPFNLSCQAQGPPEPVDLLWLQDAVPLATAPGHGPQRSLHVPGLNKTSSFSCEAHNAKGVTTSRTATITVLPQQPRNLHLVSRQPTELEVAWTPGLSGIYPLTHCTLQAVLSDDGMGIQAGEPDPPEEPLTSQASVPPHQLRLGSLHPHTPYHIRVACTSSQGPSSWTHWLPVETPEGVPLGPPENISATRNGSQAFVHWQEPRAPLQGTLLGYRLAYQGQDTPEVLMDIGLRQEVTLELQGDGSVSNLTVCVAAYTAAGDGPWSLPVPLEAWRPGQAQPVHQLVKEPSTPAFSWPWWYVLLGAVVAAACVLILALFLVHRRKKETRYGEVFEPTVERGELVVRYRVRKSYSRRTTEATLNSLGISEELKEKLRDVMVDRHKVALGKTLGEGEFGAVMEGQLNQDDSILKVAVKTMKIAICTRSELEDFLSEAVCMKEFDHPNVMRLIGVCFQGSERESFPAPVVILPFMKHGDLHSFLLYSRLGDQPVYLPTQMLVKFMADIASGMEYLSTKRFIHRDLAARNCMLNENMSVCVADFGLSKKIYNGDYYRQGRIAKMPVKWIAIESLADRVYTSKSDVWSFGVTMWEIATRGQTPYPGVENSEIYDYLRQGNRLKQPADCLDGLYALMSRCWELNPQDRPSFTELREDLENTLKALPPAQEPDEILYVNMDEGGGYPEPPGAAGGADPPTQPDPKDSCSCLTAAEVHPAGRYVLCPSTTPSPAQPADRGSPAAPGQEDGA
Description: as §2
For Axl+ cells, the transduced cells were spun down at 500×g for 5 min and resuspended in media supplemented with 10 ng/mL IL-3 and 3 μg/mL puromycin (Invitrogen). Cells were maintained in these conditions for 7 days, passaging as required. After 7 days the cells were spun down, washed with fresh media, and then suspended in IL-3 free media. The cells were maintained in these conditions for 2 weeks to select for an IL-3 independent population of Axl+ driven cells.
as §1

2YF/3wt + NRG Ba/F3 cells (HER2YF/HER3wt), sequence (P04626 whole entry Y1005F/Y1023F/Y1112F/Y1127F/Y1139F/Y1196F/Y1221F/Y1222F/Y1248F): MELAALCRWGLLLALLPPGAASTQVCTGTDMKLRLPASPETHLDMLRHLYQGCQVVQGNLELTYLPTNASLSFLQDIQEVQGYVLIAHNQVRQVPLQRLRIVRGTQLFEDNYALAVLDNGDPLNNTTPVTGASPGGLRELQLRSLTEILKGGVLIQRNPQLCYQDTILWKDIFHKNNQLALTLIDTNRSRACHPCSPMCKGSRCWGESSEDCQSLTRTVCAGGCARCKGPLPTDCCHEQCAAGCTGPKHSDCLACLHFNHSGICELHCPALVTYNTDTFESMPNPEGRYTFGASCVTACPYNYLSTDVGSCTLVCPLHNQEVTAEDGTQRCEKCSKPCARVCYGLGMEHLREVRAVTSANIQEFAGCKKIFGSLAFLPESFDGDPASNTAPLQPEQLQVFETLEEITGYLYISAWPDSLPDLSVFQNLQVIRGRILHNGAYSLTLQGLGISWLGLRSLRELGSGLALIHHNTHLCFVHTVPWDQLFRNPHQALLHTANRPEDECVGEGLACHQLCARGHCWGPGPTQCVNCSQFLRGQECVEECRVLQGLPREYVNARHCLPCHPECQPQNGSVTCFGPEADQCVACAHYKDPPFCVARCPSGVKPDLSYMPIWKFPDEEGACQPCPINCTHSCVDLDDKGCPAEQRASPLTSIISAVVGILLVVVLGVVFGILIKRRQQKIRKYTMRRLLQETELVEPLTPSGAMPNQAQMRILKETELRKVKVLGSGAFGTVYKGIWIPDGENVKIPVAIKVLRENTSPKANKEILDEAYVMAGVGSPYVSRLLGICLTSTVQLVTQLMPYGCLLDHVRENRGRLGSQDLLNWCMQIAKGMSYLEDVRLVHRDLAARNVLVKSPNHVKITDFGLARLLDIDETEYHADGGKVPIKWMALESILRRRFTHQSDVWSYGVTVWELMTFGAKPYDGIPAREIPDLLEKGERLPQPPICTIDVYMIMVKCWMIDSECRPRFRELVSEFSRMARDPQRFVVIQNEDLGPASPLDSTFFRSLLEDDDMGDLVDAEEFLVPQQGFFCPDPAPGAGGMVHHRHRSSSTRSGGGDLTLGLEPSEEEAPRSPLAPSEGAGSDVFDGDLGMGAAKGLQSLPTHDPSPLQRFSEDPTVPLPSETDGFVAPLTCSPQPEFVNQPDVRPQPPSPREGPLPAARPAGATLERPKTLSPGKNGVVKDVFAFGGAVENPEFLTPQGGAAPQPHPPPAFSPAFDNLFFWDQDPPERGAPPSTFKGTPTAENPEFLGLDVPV

Structure (SMILES) | IC50 (HER2+/2VE Ba/F3 line; Mus musculus, BaF3) | GI50 [1] | IC50 ([2]; Mus musculus, BaF3) | GI50 (Axl+ Ba/F3 cells) | IC50 (HER2+/2VE Ba/F3 line) | IC50 [2]
COc1ccc(-c2sccc2C)cc1Nc1ncnc2[nH]nc(-c3ccco3)c12 [Cmpd 66B] | 210 nM | 31 nM | – | – | – | –
COc1ccc(-c2cnn(C)c2)cc1Nc1ncnc2[nH]nc(-c3cn[nH]c3)c12 [Cmpd 154C] | > 10000 nM | > 10000 nM | > 10000 nM | – | – | –
COc1ccc(-c2sccc2C)cc1Nc1ncnc2[nH]nc(-c3cn[nH]c3)c12 [Cmpd 154B] | 295 nM | 39.3 nM | > 10000 nM | – | – | –
COc1ccc(-c2ccccc2)cc1N(C)c1ncnc2[nH]nc(-c3ccsc3)c12 [Cmpd 43] | > 3330 nM | > 3330 nM | > 3330 nM | > 3330 nM | – | –
COc1ccc(N2CCN(C)CC2)cc1Nc1ncnc2[nH]nc(-c3ccsc3)c12 [Cmpd 41B] | > 1000 nM | > 3330 nM | > 3330 nM | > 1000 nM | – | –
COc1ccc(-c2ccccc2)cc1Nc1nc(N)nc2[nH]nc(-c3ccco3)c12 [Cmpd 65] | 11 nM | 4 nM | 8.4 nM | – | – | –
COc1ccc(-c2ccoc2)cc1Nc1ncnc2[nH]nc(-c3ccnn3C)c12 [Cmpd 152] | 2570 nM | 822 nM | > 10000 nM | – | – | –
COc1ccc(-c2ccoc2)cc1Nc1ncnc2[nH]nc(-c3cn[nH]c3)c12 [Cmpd 57B] | 82.9 nM | 12.6 nM | > 10000 nM | > 10000 nM | – | –
COc1ccc(-c2ccccc2)cc1Nc1ncnc2[nH]nc(-c3cccs3)c12 [Cmpd 45B] | 3610 nM | 745 nM | > 10000 nM | 4030 nM | – | –
COc1ccc(-c2csc(C)n2)cc1Nc1ncnc2[nH]nc(-c3ccco3)c12 [Cmpd 66A] | 2340 nM | 1560 nM | – | – | – | –
COc1ccc(-c2ccccc2)cc1Nc1ncnc2[nH]nc(-c3cccc(C(N)=O)c3)c12 [Cmpd 45D] | 869 nM | 270 nM | 3010 nM | 880 nM | – | –
COc1ccc(-c2ccoc2)cc1Nc1ncnc2[nH]cc(-c3ccc4nc[nH]c4c3)c12 [Cmpd 173B] | 228 nM | 32 nM | – | – | – | –
CCOc1ccc(-c2ccccc2)cc1Nc1ncnc2[nH]nc(-c3cn[nH]c3)c12 [Cmpd 147] | 359 nM | 58.7 nM | 1360 nM | – | – | –
COc1ccc(-c2ccco2)cc1Nc1ncnc2[nH]nc(-c3ccco3)c12 [55A] | 908 nM | 39.5 nM | > 10000 nM | > 3330 nM | – | –
CNC(=O)c1cc(-c2n[nH]c3ncnc(Nc4cc(-c5ccccc5)ccc4OC)c23)cs1 [Cmpd 45F] | 1020 nM | 739 nM | > 10000 nM | 535 nM | – | –
COc1ccc(-c2n[nH]c3ncnc(Nc4cc(-c5ccccc5)ccc4OC)c23)cc1 [Cmpd 189B] | – | > 10000 nM | – | > 10000 nM | > 10000 nM | > 10000 nM

Structure (SMILES) | IC50 (HER2+/2VE Ba/F3 line; Mus musculus, BaF3) | GI50 [1] | IC50 ([2]; Mus musculus, BaF3) | GI50 (Axl+ Ba/F3 cells) | IC50 (HER2+/2VE Ba/F3 line) | IC50 [2]
COc1ccc(-c2ccccc2)cc1Nc1ncnc2[nH]nc(-c3ccsc3)c12 [Cmpd 191F] | 1700 nM | 376 nM | 2510 nM | 2150 nM | – | –
COc1ccc(-c2cccc(C)c2)cc1Nc1ncnc2[nH]nc(-c3ccsc3)c12 [Cmpd 39B] | > 3330 nM | > 3330 nM | > 3330 nM | 1760 nM | – | –
CCOc1ccc(-c2ccoc2)cc1Nc1ncnc2[nH]nc(-c3cn[nH]c3)c12 [Cmpd 153] | 285 nM | 17.5 nM | > 3330 nM | – | – | –
COc1ccccc1Nc1ncnc2[nH]nc(-c3cccc(C(C)=O)c3)c12 [Cmpd 187B] | > 10000 nM | > 10000 nM | > 10000 nM | > 10000 nM | – | –
COc1ccc(-c2ccccc2C)cc1Nc1ncnc2[nH]nc(-c3ccsc3)c12 [Cmpd 39A] | > 10000 nM | > 3330 nM | > 10000 nM | > 10000 nM | – | –
COc1ccc(-c2ccccc2)cc1Nc1ncnc2[nH]nc(-c3ccco3)c12 [Cmpd 45A] | 978 nM | 43 nM | > 10000 nM | 1210 nM | – | –
CC(=O)c1cccc(-c2n[nH]c3ncnc(Nc4ccc(-c5ccccc5)cc4)c23)c1 [Cmpd 188B] | > 10000 nM | > 10000 nM | > 10000 nM | > 10000 nM | – | –
COc1ccc(-c2ccc(C)cc2)cc1Nc1ncnc2[nH]nc(-c3ccsc3)c12 [Cmpd 39C] | > 10000 nM | > 10000 nM | > 10000 nM | > 10000 nM | – | –
COc1ccc(-c2ccc(C#N)s2)cc1Nc1ncnc2[nH]cc(-c3cn[nH]c3)c12 [Cmpd 170] | 673 nM | 687 nM | – | – | – | –
COc1ccc(-c2ccnn2C)cc1Nc1ncnc2[nH]nc(-c3cn[nH]c3)c12 [Cmpd 154A] | > 10000 nM | > 10000 nM | > 10000 nM | – | – | –
COc1ccc(-c2ccoc2)cc1Nc1ncnc2[nH]nc(-c3cnn(C)c3)c12 [Cmpd 144B] | 308 nM | 21.4 nM | > 3330 nM | – | – | –
COc1ccc(-c2ccnn2C)cc1Nc1ncnc2[nH]nc(-c3ccco3)c12 [Cmpd 66C] | 642 nM | 362 nM | – | – | – | –
COc1ccc(-c2csc(C)c2)cc1Nc1ncnc2[nH]cc(-c3cn[nH]c3)c12 [Cmpd 172] | 422 nM | 910 nM | – | – | – | –
CCOc1ccc(-c2ccccc2)cc1Nc1ncnc2[nH]cc(-c3cc[nH]n3)c12 [Cmpd 176] | – | 29 nM | – | – | 217 nM | 2290 nM
COc1ccc(-c2ccoc2)cc1Nc1ncnc2[nH]nc(-c3ccccc3)c12 [Cmpd 144A] | 1080 nM | 171 nM | > 3330 nM | – | – | –
CCOc1ccc(-c2ccccc2)cc1Nc1ncnc2[nH]cc(-c3cn[nH]c3)c12 [Cmpd 171] | 183 nM | 45 nM | – | – | – | –
